Read-outs that look alike come from different tables or passages of the source.
How the values were obtained:
JAK3 [1] = biological target: T1, JAK3 (Homo sapiens, UniProt P52333); assay: Eurofins Kinase Profiler panel; assay type: biochemical; details: read-out: % inhibition (1μM), DMSO control=100%, lower=stronger, text: residual kinase activity
T1 construct: ChemPartner (contract assay service)
T1 sequence (P52333 1-1124): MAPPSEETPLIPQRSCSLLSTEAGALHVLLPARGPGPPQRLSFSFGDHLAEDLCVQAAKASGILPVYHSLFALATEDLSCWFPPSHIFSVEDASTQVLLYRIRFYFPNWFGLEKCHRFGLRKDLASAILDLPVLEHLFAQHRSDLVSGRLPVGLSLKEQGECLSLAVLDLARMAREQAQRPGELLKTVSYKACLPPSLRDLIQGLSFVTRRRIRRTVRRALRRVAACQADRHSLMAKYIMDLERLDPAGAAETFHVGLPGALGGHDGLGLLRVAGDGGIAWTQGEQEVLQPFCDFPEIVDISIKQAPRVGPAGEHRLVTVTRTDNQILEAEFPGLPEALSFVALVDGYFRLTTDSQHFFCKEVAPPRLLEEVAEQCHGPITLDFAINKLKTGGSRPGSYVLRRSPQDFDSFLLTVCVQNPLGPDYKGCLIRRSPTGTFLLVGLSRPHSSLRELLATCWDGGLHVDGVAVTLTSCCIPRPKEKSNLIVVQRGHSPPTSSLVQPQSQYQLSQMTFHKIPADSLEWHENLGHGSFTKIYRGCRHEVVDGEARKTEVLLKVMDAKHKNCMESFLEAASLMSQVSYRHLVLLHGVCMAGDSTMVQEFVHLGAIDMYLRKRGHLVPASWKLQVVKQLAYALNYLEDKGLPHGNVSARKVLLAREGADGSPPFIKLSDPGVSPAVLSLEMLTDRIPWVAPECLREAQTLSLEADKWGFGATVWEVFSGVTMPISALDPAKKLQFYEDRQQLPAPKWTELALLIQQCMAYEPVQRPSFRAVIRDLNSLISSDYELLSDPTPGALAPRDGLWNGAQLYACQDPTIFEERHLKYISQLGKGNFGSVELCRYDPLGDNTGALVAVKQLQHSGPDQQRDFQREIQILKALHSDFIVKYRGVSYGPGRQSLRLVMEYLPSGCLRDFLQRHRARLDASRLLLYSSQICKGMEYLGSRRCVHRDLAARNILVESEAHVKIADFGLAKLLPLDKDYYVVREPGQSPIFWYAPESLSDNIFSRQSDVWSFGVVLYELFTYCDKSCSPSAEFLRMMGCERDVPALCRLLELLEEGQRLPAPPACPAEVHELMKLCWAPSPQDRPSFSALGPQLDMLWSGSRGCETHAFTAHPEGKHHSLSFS

TEC = biological target: T2, TEC (Homo sapiens, UniProt P42680); assay: Cys-containing kinase family panel (EurofinsCerep); assay type: biochemical
T2 construct: EurofinsCerep (contract assay service)
T2 sequence (P42680 whole entry): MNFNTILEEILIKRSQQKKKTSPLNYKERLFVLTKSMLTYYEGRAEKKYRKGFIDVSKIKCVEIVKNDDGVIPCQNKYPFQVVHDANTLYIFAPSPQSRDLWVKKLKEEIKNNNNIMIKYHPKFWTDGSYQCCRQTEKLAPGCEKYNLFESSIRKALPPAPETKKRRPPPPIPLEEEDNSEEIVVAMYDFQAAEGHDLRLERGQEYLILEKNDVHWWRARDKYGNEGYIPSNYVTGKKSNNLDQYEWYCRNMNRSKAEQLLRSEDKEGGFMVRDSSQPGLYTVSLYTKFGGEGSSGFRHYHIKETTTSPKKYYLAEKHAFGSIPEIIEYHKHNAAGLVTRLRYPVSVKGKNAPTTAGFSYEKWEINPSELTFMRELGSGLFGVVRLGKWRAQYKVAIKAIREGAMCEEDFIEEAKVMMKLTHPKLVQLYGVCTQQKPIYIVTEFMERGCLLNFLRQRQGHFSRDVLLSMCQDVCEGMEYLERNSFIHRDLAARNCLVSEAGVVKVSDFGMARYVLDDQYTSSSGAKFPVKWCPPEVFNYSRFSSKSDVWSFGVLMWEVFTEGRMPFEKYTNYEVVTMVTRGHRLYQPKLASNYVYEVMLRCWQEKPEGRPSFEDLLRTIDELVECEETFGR
Excerpt: (§1) The assay protocol guides are commercially available from ChemPartner.

EGFR = biological target: T3, EGFR (Homo sapiens, UniProt P00533); assay: Cys-containing kinase family panel (EurofinsCerep); assay type: biochemical
T3 construct: EurofinsCerep (contract assay service)
Excerpt: as §1

TXK = biological target: T4, TXK (Homo sapiens, UniProt P42681); assay: Cys-containing kinase family panel (EurofinsCerep); assay type: biochemical
T4 construct: EurofinsCerep (contract assay service)
T4 sequence (P42681 whole entry): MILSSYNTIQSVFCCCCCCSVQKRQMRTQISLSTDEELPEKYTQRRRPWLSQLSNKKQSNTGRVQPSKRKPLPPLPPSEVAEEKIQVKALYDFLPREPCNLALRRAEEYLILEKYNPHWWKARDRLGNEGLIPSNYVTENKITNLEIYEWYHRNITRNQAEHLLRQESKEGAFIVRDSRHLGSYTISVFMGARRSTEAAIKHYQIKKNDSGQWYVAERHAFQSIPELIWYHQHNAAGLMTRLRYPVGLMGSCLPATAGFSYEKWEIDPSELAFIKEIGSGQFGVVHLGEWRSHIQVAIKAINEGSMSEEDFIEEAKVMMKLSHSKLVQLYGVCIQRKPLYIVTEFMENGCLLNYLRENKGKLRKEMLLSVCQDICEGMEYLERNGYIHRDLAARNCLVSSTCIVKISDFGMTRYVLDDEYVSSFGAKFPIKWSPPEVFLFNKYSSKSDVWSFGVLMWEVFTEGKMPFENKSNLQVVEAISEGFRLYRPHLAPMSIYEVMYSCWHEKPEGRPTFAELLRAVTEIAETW
Excerpt: as §1

PKCθ = biological target: T5, PKCθ (Homo sapiens, UniProt Q04759); assay: Eurofins Kinase Profiler panel; assay type: biochemical; details: read-out: % inhibition (1μM), DMSO control=100%, lower=stronger
T5 construct: purchased Eurofins KinaseProfiler (Eurofins Pharma Discovery Services UK, Dundee); JAK3 also ChemPartner
T5 sequence (Q04759 whole entry): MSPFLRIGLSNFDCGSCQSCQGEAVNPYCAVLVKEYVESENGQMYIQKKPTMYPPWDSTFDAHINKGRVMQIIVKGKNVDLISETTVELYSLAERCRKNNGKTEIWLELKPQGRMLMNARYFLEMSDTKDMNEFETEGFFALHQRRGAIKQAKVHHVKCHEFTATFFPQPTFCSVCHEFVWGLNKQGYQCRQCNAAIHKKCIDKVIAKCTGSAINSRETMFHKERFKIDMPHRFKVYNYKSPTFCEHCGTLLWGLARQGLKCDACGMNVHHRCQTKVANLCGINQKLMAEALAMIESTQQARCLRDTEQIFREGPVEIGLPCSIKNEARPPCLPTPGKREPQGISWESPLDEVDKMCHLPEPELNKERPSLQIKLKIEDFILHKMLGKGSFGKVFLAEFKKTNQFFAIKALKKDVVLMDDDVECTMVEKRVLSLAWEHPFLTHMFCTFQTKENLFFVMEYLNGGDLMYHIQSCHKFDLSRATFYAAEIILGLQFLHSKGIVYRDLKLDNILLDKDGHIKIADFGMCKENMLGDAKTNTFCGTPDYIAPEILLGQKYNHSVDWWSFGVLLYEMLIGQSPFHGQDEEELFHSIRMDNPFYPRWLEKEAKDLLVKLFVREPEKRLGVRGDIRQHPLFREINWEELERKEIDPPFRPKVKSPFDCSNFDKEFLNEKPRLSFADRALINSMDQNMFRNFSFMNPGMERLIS
Excerpt: as §1

TAO1 = biological target: T6, TAO1 (Homo sapiens, UniProt Q7L7X3); assay: Eurofins Kinase Profiler panel; assay type: biochemical; details: read-out: % inhibition (1μM), DMSO control=100%, lower=stronger
T6 construct: Eurofins Pharma Discovery Services UK Limited (Kinase Profiler service)
T6 sequence (Q7L7X3 whole entry): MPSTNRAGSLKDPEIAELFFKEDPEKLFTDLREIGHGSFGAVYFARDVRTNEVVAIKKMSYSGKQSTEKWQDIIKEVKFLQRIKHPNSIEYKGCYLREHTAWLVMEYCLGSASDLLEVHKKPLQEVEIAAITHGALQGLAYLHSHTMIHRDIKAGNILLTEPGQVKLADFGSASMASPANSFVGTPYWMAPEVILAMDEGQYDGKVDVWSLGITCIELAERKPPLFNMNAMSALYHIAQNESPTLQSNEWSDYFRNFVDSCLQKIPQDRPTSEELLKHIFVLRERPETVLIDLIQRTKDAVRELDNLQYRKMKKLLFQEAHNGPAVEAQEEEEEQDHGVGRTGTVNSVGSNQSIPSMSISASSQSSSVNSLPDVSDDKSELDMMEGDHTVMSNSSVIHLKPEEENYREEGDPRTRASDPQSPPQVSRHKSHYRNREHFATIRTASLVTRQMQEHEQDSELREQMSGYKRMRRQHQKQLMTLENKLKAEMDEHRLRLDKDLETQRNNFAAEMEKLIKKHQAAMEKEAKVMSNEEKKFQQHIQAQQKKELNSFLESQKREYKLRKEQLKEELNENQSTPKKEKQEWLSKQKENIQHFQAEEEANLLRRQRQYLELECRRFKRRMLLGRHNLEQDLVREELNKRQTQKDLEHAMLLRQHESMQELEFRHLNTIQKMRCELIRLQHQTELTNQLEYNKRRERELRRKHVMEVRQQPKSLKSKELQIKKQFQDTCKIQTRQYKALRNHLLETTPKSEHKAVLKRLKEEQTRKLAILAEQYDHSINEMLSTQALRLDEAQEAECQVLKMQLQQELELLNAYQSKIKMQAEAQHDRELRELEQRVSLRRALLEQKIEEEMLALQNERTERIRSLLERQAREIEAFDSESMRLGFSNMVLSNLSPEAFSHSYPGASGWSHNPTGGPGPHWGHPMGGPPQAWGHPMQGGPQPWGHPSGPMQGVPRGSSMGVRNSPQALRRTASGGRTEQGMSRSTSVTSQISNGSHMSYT
Excerpt: as §1

DDR1 = biological target: T7, DDR1 (Homo sapiens, UniProt Q08345); assay: Eurofins Kinase Profiler panel; assay type: biochemical; details: read-out: % inhibition (1μM), DMSO control=100%, lower=stronger
T7 construct: purchased Eurofins KinaseProfiler (Eurofins Pharma Discovery Services UK, Dundee); JAK3 also ChemPartner
Excerpt: as §1

PKA = biological target: T8, PKA (Homo sapiens, UniProt P17612); assay: Eurofins Kinase Profiler panel; assay type: biochemical; details: read-out: % inhibition (1μM), DMSO control=100%, lower=stronger
T8 construct: purchased Eurofins KinaseProfiler (Eurofins Pharma Discovery Services UK, Dundee); JAK3 also ChemPartner
Excerpt: as §1

TrkA = biological target: T9, TrkA (Homo sapiens, UniProt P04629); assay: Eurofins Kinase Profiler panel; assay type: biochemical; details: read-out: % inhibition (1μM), DMSO control=100%, lower=stronger
T9 construct: purchased Eurofins Pharma Discovery Services UK Limited (Kinase Profiler screening platform)
Excerpt: as §1

DYRK1B = biological target: T10, DYRK1B (Homo sapiens, UniProt Q9Y463); assay: Eurofins Kinase Profiler panel; assay type: biochemical; details: read-out: % inhibition (1μM), DMSO control=100%, lower=stronger
T10 construct: Eurofins Pharma Discovery Services UK Limited (Kinase Profiler service)
T10 sequence (Q9Y463 whole entry): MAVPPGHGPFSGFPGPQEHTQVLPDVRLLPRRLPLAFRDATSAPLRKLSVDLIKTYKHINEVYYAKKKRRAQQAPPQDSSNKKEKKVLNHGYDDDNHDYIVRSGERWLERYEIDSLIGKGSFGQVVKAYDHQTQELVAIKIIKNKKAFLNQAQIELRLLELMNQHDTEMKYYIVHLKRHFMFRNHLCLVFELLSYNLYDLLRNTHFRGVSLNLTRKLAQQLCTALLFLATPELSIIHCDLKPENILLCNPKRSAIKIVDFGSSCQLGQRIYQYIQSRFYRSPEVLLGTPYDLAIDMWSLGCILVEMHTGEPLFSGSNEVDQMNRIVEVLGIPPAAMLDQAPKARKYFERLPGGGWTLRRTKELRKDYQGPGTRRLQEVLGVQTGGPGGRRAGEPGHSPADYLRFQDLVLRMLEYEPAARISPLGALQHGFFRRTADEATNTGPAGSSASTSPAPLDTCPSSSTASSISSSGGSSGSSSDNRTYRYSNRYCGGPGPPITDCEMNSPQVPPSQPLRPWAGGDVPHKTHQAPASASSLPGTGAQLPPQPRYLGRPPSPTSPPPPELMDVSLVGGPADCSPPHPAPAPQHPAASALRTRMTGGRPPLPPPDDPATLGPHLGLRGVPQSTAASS
Excerpt: as §1

Rsk2 = biological target: T11, Rsk2 (Homo sapiens, UniProt P51812); assay: Eurofins Kinase Profiler panel; assay type: biochemical; details: read-out: % inhibition (1μM), DMSO control=100%, lower=stronger
T11 construct: purchased Eurofins KinaseProfiler (Eurofins Pharma Discovery Services UK, Dundee); JAK3 also ChemPartner
Excerpt: as §1

Pim-2 = biological target: T12, Pim-2 (Homo sapiens, UniProt Q9P1W9); assay: Eurofins Kinase Profiler panel; assay type: biochemical; details: read-out: % inhibition (1μM), DMSO control=100%, lower=stronger
T12 construct: purchased Eurofins KinaseProfiler (Eurofins Pharma Discovery Services UK, Dundee); JAK3 also ChemPartner
Excerpt: as §1

IKKα = biological target: T13, IKKα (Homo sapiens, UniProt O15111); assay: Eurofins Kinase Profiler panel; assay type: biochemical; details: read-out: % inhibition (1μM), DMSO control=100%, lower=stronger
T13 construct: purchased Eurofins KinaseProfiler (Eurofins Pharma Discovery Services UK, Dundee); JAK3 also ChemPartner

ALK4 = biological target: T14, ALK4 (Homo sapiens, UniProt P36896); assay: Eurofins Kinase Profiler panel; assay type: biochemical; details: read-out: % inhibition (1μM), DMSO control=100%, lower=stronger
T14 construct: purchased Eurofins KinaseProfiler (Eurofins Pharma Discovery Services UK, Dundee); JAK3 also ChemPartner
T14 sequence (P36896 24-505): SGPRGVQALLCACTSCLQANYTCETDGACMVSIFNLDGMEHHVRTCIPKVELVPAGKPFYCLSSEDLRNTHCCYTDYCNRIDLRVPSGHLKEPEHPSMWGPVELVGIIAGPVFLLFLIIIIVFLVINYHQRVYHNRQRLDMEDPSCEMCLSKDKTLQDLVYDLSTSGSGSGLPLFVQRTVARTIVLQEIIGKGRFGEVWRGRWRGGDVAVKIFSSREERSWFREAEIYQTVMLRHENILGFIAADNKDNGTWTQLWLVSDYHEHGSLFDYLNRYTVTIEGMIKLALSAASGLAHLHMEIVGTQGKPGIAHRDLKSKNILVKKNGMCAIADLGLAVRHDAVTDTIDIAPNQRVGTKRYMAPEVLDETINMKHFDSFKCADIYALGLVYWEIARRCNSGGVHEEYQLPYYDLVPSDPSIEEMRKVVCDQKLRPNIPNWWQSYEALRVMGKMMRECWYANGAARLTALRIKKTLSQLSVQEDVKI

JAK3 [2] = biological target: T1, JAK3; assay: Cys-containing kinase family panel (EurofinsCerep); assay type: biochemical
IR = biological target: T15, IR (Homo sapiens, UniProt P06213); assay: Eurofins Kinase Profiler panel; assay type: biochemical; details: read-out: % inhibition (1μM), DMSO control=100%, lower=stronger
T15 construct: purchased Eurofins KinaseProfiler (Eurofins Pharma Discovery Services UK, Dundee); JAK3 also ChemPartner

[3] = system: G-CSF-induced JAK/STAT3 phosphorylation in HEL cells (JAK1/JAK2); assay: STAT3 phosphorylation induced by G-CSF in HEL cells, Western blot; details: for IC50: Homo sapiens
[4] = system: IL-2-induced STAT5 phosphorylation (JAK1/JAK3); assay: IL-2-induced pSTAT5 in total lymphocytes in hPBMCs, flow cytometry; assay type: cell-based; details: Homo sapiens, Lymphocyte, hPBMC total lymphocytes, trigger IL-2, readout pSTAT5
[5] = Pharmacokinetics in Sprague Dawley rats; assay type: in vivo
MAPK1 = biological target: T16, MAPK1 (Homo sapiens, UniProt P27361); assay: Eurofins Kinase Profiler panel; assay type: biochemical; details: read-out: % inhibition (1μM), DMSO control=100%, lower=stronger
T16 construct: purchased Eurofins KinaseProfiler (Eurofins Pharma Discovery Services UK, Dundee); JAK3 also ChemPartner
T16 sequence (P27361 whole entry): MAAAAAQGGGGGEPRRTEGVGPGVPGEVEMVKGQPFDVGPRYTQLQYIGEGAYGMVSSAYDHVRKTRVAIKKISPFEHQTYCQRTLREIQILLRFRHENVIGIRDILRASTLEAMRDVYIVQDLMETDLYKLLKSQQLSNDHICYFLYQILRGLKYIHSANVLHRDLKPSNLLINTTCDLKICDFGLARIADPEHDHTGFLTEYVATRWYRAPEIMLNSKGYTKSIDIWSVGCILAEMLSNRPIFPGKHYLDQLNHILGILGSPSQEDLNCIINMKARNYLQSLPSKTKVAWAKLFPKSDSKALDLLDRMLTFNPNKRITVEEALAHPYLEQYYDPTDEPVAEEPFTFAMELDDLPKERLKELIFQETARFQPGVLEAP

Aurora-A = biological target: T17, Aurora-A (Homo sapiens, UniProt O14965); assay: Eurofins Kinase Profiler panel; assay type: biochemical
T17 construct: Eurofins Pharma Discovery Services UK Limited (Kinase Profiler service)
T17 sequence (O14965 whole entry): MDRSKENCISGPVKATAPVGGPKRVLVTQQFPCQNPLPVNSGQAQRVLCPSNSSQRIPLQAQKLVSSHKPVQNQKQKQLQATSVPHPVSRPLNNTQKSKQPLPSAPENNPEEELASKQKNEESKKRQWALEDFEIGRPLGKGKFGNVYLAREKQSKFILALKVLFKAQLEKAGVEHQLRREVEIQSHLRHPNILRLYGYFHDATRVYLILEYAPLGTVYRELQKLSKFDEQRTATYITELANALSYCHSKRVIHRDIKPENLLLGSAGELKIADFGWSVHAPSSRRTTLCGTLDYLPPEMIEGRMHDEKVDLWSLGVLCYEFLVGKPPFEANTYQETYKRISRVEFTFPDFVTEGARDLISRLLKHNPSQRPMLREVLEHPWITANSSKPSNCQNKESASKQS

[6] = both sexes, Sprague Dawley, rat, iv 5.0 mg/kg, plasma
[7] = both sexes, Sprague Dawley, rat, plasma, iv 5.0 mg/kg
[8] = both sexes, Sprague Dawley, rat, plasma, po 10 mg/kg
[9] = both sexes, Sprague Dawley, rat, po 10 mg/kg, plasma

Q: For `C=CC(=O)N[C@@H]1CCCN(c2ncnc3[nH]ccc23)C1` [RB1], which activity at 1 µM (JAK3 [1]) is on record?
A: 0.9%

Q: And the inhibition at 1 µM (TEC)?
A: 14%

Q: And the inhibition at 1 µM (EGFR)?
A: 11.2%

Q: And the inhibition at 1 µM (TXK)?
A: 7.25%

Q: And the activity at 1 µM (PKCθ)?
A: 80%

Q: And the activity at 1 µM (TAO1)?
A: 70%

Q: What about the activity at 1 µM (DDR1) of the same compound?
A: 75%

Q: And the activity at 1 µM (PKA)?
A: 85%

Q: And the activity at 1 µM (TrkA)?
A: 46%

Q: What about the activity at 1 µM (DYRK1B) of the same compound?
A: 86%

Q: What about the activity at 1 µM (Rsk2) of the same compound?
A: 76%

Q: And the activity at 1 µM (Pim-2)?
A: 98%

Q: What about the activity at 1 µM (IKKα) of the same compound?
A: 97%

Q: What about the activity at 1 µM (ALK4) of the same compound?
A: 101%

Q: And the inhibition at 1 µM (JAK3 [2])?
A: 99.1%

Q: What about the activity at 1 µM (IR) of the same compound?
A: 114%

Q: What about the “G-CSF-induced phosphorylation of STAT3” value ([3]; HEL cells, RB1 at concentrations over 50 μM) of the same compound?
A: not affected

Q: What about the “Selectivity JAK1/JAK3” value ([3]; HEL, G-CSF, pSTAT3) of the same compound?
A: > 1000

Q: What about the “Selectivity JAK2/JAK3” value ([3]; HEL, G-CSF, pSTAT3) of the same compound?
A: > 1000

Q: And the IC50 ([3]; HEL, read-out: IC50 (nM) JAK1)?
A: > 50000 nM

Q: And the IC50 ([3]; HEL, read-out: IC50 (nM) JAK2)?
A: > 50000 nM

Q: And the IC50 [4]?
A: 105 nM

Q: And the AUC(0-inf) [5, 6]?
A: 933 ng·h/mL

Q: What about the AUC(0-t) [5, 6] of the same compound?
A: 802 ng·h/mL

Q: And the Cmax [5, 6]?
A: 1090 ng/mL

Q: And the Tmax [5, 7]?
A: 0.08 h

Q: And the clearance [5, 7]?
A: 97.7 mL/min/kg

Q: What about the half-life [5, 7] of the same compound?
A: 14.6 h

Q: And the bioavailability ([5]; both sexes, Sprague Dawley, rat, plasma, oral, 10 mg/kg, po 10 mg/kg vs iv 5.0 mg/kg, read-out: F (oral bioavailability))?
A: 72.5%

Q: What about the Tmax [5, 8] of the same compound?
A: 0.25 h

Q: And the half-life [5, 8]?
A: 6.9 h

Q: What about the AUC(0-inf) [5, 9] of the same compound?
A: 1310 ng·h/mL

Q: What about the AUC(0-t) [5, 9] of the same compound?
A: 1160 ng·h/mL

Q: What about the Cmax [5, 9] of the same compound?
A: 309 ng/mL

Q: What about the V ([5]; iv 5.0 mg/kg) of the same compound?
A: 98.04 L/kg

Q: And the CL ([5]; po 10 mg/kg)?
A: 144 mL/min/kg

Q: And the V ([5]; po 10 mg/kg)?
A: 77.33 L/kg

Q: And the “F (oral bioavailability)” value ([5]; po 10 mg/kg vs iv 5.0 mg/kg)?
A: 72.5%

Q: And the activity at 1 µM (MAPK1)?
A: 85%

Q: And the IC50 (Aurora-A; estimated)?
A: > 800 nM

Q: What about the activity at 1 µM (Aurora-A; read-out: % inhibition (1μM), 1 µM, DMSO control=100%, lower=stronger) of the same compound?
A: 21%

From paper PMC5869712 (Scientific Reports, 2018)
